How the values were obtained:
[1] = Subcutaneous irritation test in a single dose; format: in vivo, rats; details: for Gross: Crust / Gross: White matter accumulation / Histopathological, Subcutaneous: Cyst-like structure / Histopathological, Subcutaneous tissue: Cyst-like structure / Gross: Dark red spots / Gross: Edema / Gross: Epidermis: Crust: number of the observed animals; for Histopathological, Dermis: Inflammatory cell infiltration / Histopathological, Subcutaneous: Granulomatous inflammation / Histopathological, Subcutaneous: Inflammatory cell infiltration / Histopathological, Subcutaneous: Edema / Histopathological, Muscle layer: Edema / Histopathological, Muscle layer: Inflammatory cell infiltration / Histopathological, Muscle layer: Necrosis / Histopathological, Subcutaneous tissue: Bleeding / Histopathological, Subcutaneous tissue: Edema / Histopathological, Subcutaneous tissue: Inflammatory cell infiltration / Histopathological, Subcutaneous tissue: Necrosis / Histopathological, Subcutaneous: Necrosis: total score of grades
Description: Subcutaneous irritation of a compound of the present invention was evaluated by gross examination and histopathological examination about the skin at necropsy one day, one and four week(s) after subcutaneous administration in a single dose.
The compound of the present invention was subcutaneously administered to the center of back between the shoulder blades of rats. At necropsy one day, one or four week(s) after administration (isoflurane anesthesia, euthanasia by bleeding), skin at the administration site was collected, grossly observed and fixed in 10% neutral buffered formalin solution. The fixed skin was cut out, embedded and put in a thin slice by the usual methods, and Hematoxylin-eosin (HE) stained sections were made. The pathological observers were observed the HE stained sections by an optical microscope, and recorded the histopathological findings. The changes in pathological findings were evaluated in four grades of Minimal; ±, Mild; +, Moderate; 2+ and Marked; 3+. When any grade was not appropriate for the finding, it was recorded as Positive.
SEQ-2, SEQ-49 or an adjuvant of the present invention was dissolved in phosphate buffered saline and administered at 4.71, 15.7 or 47.1 nmol/1 mL/site, respectively.

[2] = system: B16F10 cells; assay: Anti-tumor effect of TRP2 peptide vaccine using an adjuvant; format: in vivo, mouse
Description: After immunization by TRP2 peptide vaccine, B16F10 cells (ATTC) which is mouse melanoma expressing TRP2 protein was subcutaneously transplanted to evaluate anti-tumor effect. […] The major and minor axes of the engrafted tumor were measured every 2 to 3 days, and the tumor volume was calculated by the formula: (major axis×minor axis^2)/2 Calculation method for indicators of anti-tumor effect For the adjuvant comprising ODN1826 100·(average tumor volume of adjuvant group)/(average tumor volume of ODN1826 group) For the adjuvant comprising ODN2006 100·(average tumor volume of adjuvant group)/(average tumor volume of ODN2006 group)

[3] = four weeks after administration, 4.71 nmol/site
[4] = four weeks after administration, 15.7 nmol/site
[5] = four weeks after administration, 47.1 nmol/site
[6] = one day after administration, 4.71 nmol/site
[7] = one day after administration, 15.7 nmol/site
[8] = one day after administration, 47.1 nmol/site
[9] = one week after administration, 4.71 nmol/site
[10] = one week after administration, 15.7 nmol/site
[11] = one week after administration, 47.1 nmol/site

Substance: Amph1826 [SEQ-2]
- Number of deaths/imminent dissections [1, 3]: 0/0
- Gross: Crust [1, 3]: 0
- Gross: White matter accumulation [1, 3]: 0
- Histopathological, Subcutaneous: Cyst-like structure [1, 3]: 0
- Histopathological, Dermis: Inflammatory cell infiltration [1, 3]: 0
- Histopathological, Subcutaneous: Granulomatous inflammation [1, 3]: 4
- Histopathological, Subcutaneous: Inflammatory cell infiltration [1, 3]: 0
- Number of deaths/imminent dissections [1, 4]: 0/0
- Gross: Crust [1, 4]: 0
- Gross: White matter accumulation [1, 4]: 0
- Histopathological, Subcutaneous: Cyst-like structure [1, 4]: 0
- Histopathological, Dermis: Inflammatory cell infiltration [1, 4]: 4
- Histopathological, Subcutaneous: Edema [1, 4]: 0
- Histopathological, Subcutaneous: Granulomatous inflammation [1, 4]: 5
- Histopathological, Subcutaneous: Inflammatory cell infiltration [1, 4]: 0
- Number of deaths/imminent dissections [1, 5]: 0/0
- Gross: Crust [1, 5]: 0
- Gross: White matter accumulation [1, 5]: 0
- Histopathological, Subcutaneous: Cyst-like structure [1, 5]: 0
- Histopathological, Dermis: Inflammatory cell infiltration [1, 5]: 7
- Histopathological, Subcutaneous: Edema [1, 5]: 0
- Histopathological, Subcutaneous: Granulomatous inflammation [1, 5]: 7
- Histopathological, Subcutaneous: Inflammatory cell infiltration [1, 5]: 0
- Number of deaths/imminent dissections [1, 6]: 0/0
- Histopathological, Subcutaneous tissue: Cyst-like structure [1, 6]: 1
- Histopathological, Dermis: Inflammatory cell infiltration [1, 6]: 5
- Histopathological, Muscle layer: Edema [1, 6]: 1
- Histopathological, Muscle layer: Inflammatory cell infiltration [1, 6]: 4
- Histopathological, Muscle layer: Necrosis [1, 6]: 0
- Histopathological, Subcutaneous tissue: Bleeding [1, 6]: 0
- Histopathological, Subcutaneous tissue: Edema [1, 6]: 3
- Histopathological, Subcutaneous tissue: Inflammatory cell infiltration [1, 6]: 7
- Histopathological, Subcutaneous tissue: Necrosis [1, 6]: 1
- Number of deaths/imminent dissections [1, 7]: 0/0
- Histopathological, Subcutaneous tissue: Cyst-like structure [1, 7]: 2
- Histopathological, Dermis: Inflammatory cell infiltration [1, 7]: 9
- Histopathological, Muscle layer: Edema [1, 7]: 3
- Histopathological, Muscle layer: Inflammatory cell infiltration [1, 7]: 7
- Histopathological, Muscle layer: Necrosis [1, 7]: 0
- Histopathological, Subcutaneous tissue: Bleeding [1, 7]: 3
- Histopathological, Subcutaneous tissue: Edema [1, 7]: 5
- Histopathological, Subcutaneous tissue: Inflammatory cell infiltration [1, 7]: 6
- Histopathological, Subcutaneous tissue: Necrosis [1, 7]: 1
- Number of deaths/imminent dissections [1, 8]: 0/0
- Histopathological, Subcutaneous tissue: Cyst-like structure [1, 8]: 1
- Histopathological, Dermis: Inflammatory cell infiltration [1, 8]: 6
- Histopathological, Muscle layer: Edema [1, 8]: 4
- Histopathological, Muscle layer: Inflammatory cell infiltration [1, 8]: 6
- Histopathological, Muscle layer: Necrosis [1, 8]: 0
- Histopathological, Subcutaneous tissue: Bleeding [1, 8]: 3
- Histopathological, Subcutaneous tissue: Edema [1, 8]: 6
- Histopathological, Subcutaneous tissue: Inflammatory cell infiltration [1, 8]: 6
- Histopathological, Subcutaneous tissue: Necrosis [1, 8]: 1
- Number of deaths/imminent dissections [1, 9]: 0/0
- Gross: Dark red spots [1, 9]: 0
- Gross: Edema [1, 9]: 0
- Gross: Epidermis: Crust [1, 9]: 0
- Gross: White matter accumulation [1, 9]: 0
- Histopathological, Subcutaneous: Cyst-like structure [1, 9]: 1
- Histopathological, Dermis: Inflammatory cell infiltration [1, 9]: 4
- Histopathological, Muscle layer: Inflammatory cell infiltration [1, 9]: 0
- Histopathological, Subcutaneous: Edema [1, 9]: 3
- Histopathological, Subcutaneous: Granulomatous inflammation [1, 9]: 0
- Histopathological, Subcutaneous: Necrosis [1, 9]: 0
- Number of deaths/imminent dissections [1, 10]: 0/0
- Gross: Dark red spots [1, 10]: 0
- Gross: Edema [1, 10]: 1
- Gross: Epidermis: Crust [1, 10]: 0
- Gross: White matter accumulation [1, 10]: 0
- Histopathological, Subcutaneous: Cyst-like structure [1, 10]: 1
- Histopathological, Dermis: Inflammatory cell infiltration [1, 10]: 6
- Histopathological, Muscle layer: Inflammatory cell infiltration [1, 10]: 4
- Histopathological, Subcutaneous: Edema [1, 10]: 4
- Histopathological, Subcutaneous: Granulomatous inflammation [1, 10]: 0
- Histopathological, Subcutaneous: Inflammatory cell infiltration [1, 10]: 8
- Histopathological, Subcutaneous: Necrosis [1, 10]: 0
- Number of deaths/imminent dissections [1, 11]: 0/0
- Gross: Dark red spots [1, 11]: 0
- Gross: Edema [1, 11]: 1
- Gross: Epidermis: Crust [1, 11]: 0
- Gross: White matter accumulation [1, 11]: 0
- Histopathological, Subcutaneous: Cyst-like structure [1, 11]: 3
- Histopathological, Dermis: Inflammatory cell infiltration [1, 11]: 9
- Histopathological, Muscle layer: Inflammatory cell infiltration [1, 11]: 6
- Histopathological, Subcutaneous: Edema [1, 11]: 3
- Histopathological, Subcutaneous: Granulomatous inflammation [1, 11]: 0
- Histopathological, Subcutaneous: Inflammatory cell infiltration [1, 11]: 8
- Histopathological, Subcutaneous: Necrosis [1, 11]: 0
- subcutaneous irritation findings four weeks after administration ([1]; rats, single subcutaneous dose, four weeks): skin inflammation was not recovered, and granulomatous inflammation by continuous activation of monocyte/macrophage system was observed
- subcutaneous irritation findings one day after administration ([1]; rats, single subcutaneous dose, one day): inflammation cellular infiltration, edema and crust were observed
- subcutaneous irritation findings one week after administration ([1]; rats, single subcutaneous dose, one week): inflammation cellular infiltration, edema and crust were observed
- tumor inhibition rate compared to ODN1826 ([2]; Day 12 after transplantation, Result 4-B, FIG. 3): about 3.5%
- tumor inhibition rate compared to ODN1826 ([2]; Day 12 after transplantation, Result 6-B, FIG. 4): 64.3%
- tumor inhibition rate compared to ODN1826 ([2]; Day 14 after transplantation, Result 7-B, FIG. 5): about 72.6%
- Tumor inhibition rate (Day 14 after transplantation) ([2]; Table 37, 1.57 nmol/head, compared to ODN1826 (SEQ-1)): 72.64%

From patent US10940201B2, “Nucleic acid derivative having immunostimulatory activity” (Shionogi & Co., Ltd., priority 2015, dated 2021)
